System: TFEB
Experiment: TFEB Nuclear Translocation Assay
Format: cell-based
Settings: read-out: EC50 of TFEB activation

Structure (SMILES) | EC50 [nM]
CC(C)(C)c1ccc(S(=O)(=O)n2nc(N3CCN(c4ncc(F)cn4)CC34CC4)c3c(Cl)cccc32)cc1 [Compound 94, 1-((4-(tert-butyl)phenyl)sulfonyl)-4-chloro-3-(7-(5-fluoropyrimidin-2-yl)-4,7-diazaspiro [2.5]octan-4-yl)-1H-indazole] | ≤ 1000
O=S(=O)(c1ccc(C(F)(F)C(F)F)cc1)n1nc(N2CCN(c3ncc(F)cn3)CC23CC3)c2c(Cl)cccc21 [Compound 95, 4-chloro-3-(7-(5-fluoropyrimidin-2-yl)-4,7-diazaspiro [2.5]octan-4-yl)-1-((4-(1,1,2,2-tetrafluoroethyl)phenyl)sulfonyl)-1H-indazole] | ≤ 1000
CC(C)(CF)c1ccc(S(=O)(=O)n2nc(N3CCN(c4ncc(F)cn4)CC34CC4)c3c(Cl)cccc32)cc1 [Compound 96, 4-chloro-1-[4-(2-fluoro-1,1-dimethyl-ethyl)phenyl]sulfonyl-3-[7-(5-fluoropyrimidin-2-yl)-4,7-diazaspiro [2.5]octan-4-yl]indazole] | ≤ 1000
CC(C)(F)c1ccc(S(=O)(=O)n2nc(N3CCN(c4ncc(F)cn4)CC34CC4)c3c(Cl)cccc32)cc1 [Compound 97, 4-chloro-1-((4-(2-fluoropropan-2-yl)phenyl)sulfonyl)-3-(7-(5-fluoropyrimidin-2-yl)-4,7-diazaspiro [2.5]octan-4-yl)-1H-indazole] | ≤ 1000
O=S(=O)(c1ccc(C(F)(F)CF)cc1)n1nc(N2CCN(c3ncc(F)cn3)CC23CC3)c2c(Cl)cccc21 [Compound 98, 4-chloro-3-[7-(5-fluoropyrimidin-2-yl)-4,7-diazaspiro [2.5]octan-4-yl]-1-[4-(1,1,2-trifluoroethyl)phenyl]sulfonyl-indazole] | ≤ 1000
CC(C)(c1ccc(S(=O)(=O)n2nc(N3CCN(c4ncc(F)cn4)CC34CC4)c3c(Cl)cccc32)cc1)C(F)F [Compound 99, 4-chloro-1-[4-(2,2-difluoro-1,1-dimethyl-ethyl)phenyl]sulfonyl-3-[7-(5-fluoropyrimidin-2-yl)-4,7-diazaspiro[2.5]octan-4-yl]indazole] | ≤ 1000
CC(C)(C)c1ncc(S(=O)(=O)n2nc(N3CCN(c4ncc(F)cn4)CC34CC4)c3c(Cl)cccc32)cn1 [Compound 100, 1-(2-tert-butylpyrimidin-5-yl) sulfonyl-4-chloro-3-[7-(5-fluoropyrimidin-2-yl)-4,7-diazaspiro [2.5]octan-4-yl]indazole] | ≤ 1000
O=S(=O)(c1ccc(C2(C(F)(F)F)CC2)cc1)n1nc(N2CCN(c3ncc(F)cn3)CC23CC3)c2c(Cl)cccc21 [Compound 101, 4-chloro-3-[7-(5-fluoropyrimidin-2-yl)-4,7-diazaspiro [2.5]octan-4-yl]-1-[4-[1-(trifluoromethyl)cyclopropyl]phenyl]sulfonyl-indazole] | ≤ 1000
CCC(F)(F)c1ccc(S(=O)(=O)n2nc(N3CCN(c4ncc(F)cn4)CC34CC4)c3c(Cl)cccc32)cc1 [Compound 102, 4-chloro-1-[4-(1,1-difluoropropyl)phenyl]sulfonyl-3-[7-(5-fluoropyrimidin-2-yl)-4,7-diazaspiro [2.5]octan-4-yl]indazole] | ≤ 1000
CC(F)(F)c1ccc(S(=O)(=O)n2nc(N3CCN(c4ncc(F)cn4)CC34CC4)c3c(Cl)ccc(F)c32)cc1 [Compound 103, 4-chloro-1-[4-(1,1-difluoroethyl)phenyl]sulfonyl-7-fluoro-3-[7-(5-fluoropyrimidin-2-yl)-4,7-diazaspiro [2.5]octan-4-yl]indazole] | ≤ 1000
CC(F)(F)c1ccc(S(=O)(=O)n2nc(N3CCC3C(F)(F)F)c3c(Cl)cccc32)cc1 (stereo not drawn) [Compound 104, 4-chloro-1-[4-(1,1-difluoroethyl)phenyl]sulfonyl-3-[2-(trifluoromethyl)azetidin-1-yl]indazole] | ≤ 1000
CC(F)(F)c1ccc(S(=O)(=O)n2nc(N3CCN(c4ncc(F)cn4)CC3C(C)(C)F)c3c(Cl)cccc32)cc1 (stereo not drawn) [Compound 105, 4-chloro-1-((4-(1,1-difluoroethyl)phenyl)sulfonyl)-3-(2-(2-fluoropropan-2-yl)-4-(5-fluoropyrimidin-2-yl)piperazin-1-yl)-1H-indazole] | ≤ 1000
CC(F)(F)c1ccc(S(=O)(=O)n2nc(N3CCN(c4ncc(F)cn4)C[C@H]3C(F)(F)F)c3c(Cl)cccc32)cc1 [Compound 106, 4-chloro-1-[4-(1,1-difluoroethyl)phenyl]sulfonyl-3-[(2S)-4-(5-fluoropyrimidin-2-yl)-2-(trifluoromethyl)piperazin-1-yl]indazole] | ≤ 1000
CC(F)(F)c1ccc(S(=O)(=O)n2nc(N3CCN(c4ncc(F)cn4)CC3C(C)(C)C)c3c(Cl)cccc32)cc1 (stereo not drawn) [Compound 108, 3-[2-tert-butyl-4-(5-fluoropyrimidin-2-yl)piperazin-1-yl]-4-chloro-1-[4-(1,1-difluoroethyl)phenyl]sulfonyl-indazole] | ≤ 1000
CC(C)S(=O)(=O)c1ccc(S(=O)(=O)n2nc(N3CCC[C@@H]3C(F)(F)F)c3c(Cl)cccc32)cc1 [Compound 109, 4-chloro-1-(4-isopropylsulfonylphenyl)sulfonyl-3-[(2R)-2-(trifluoromethyl)pyrrolidin-1-yl]indazole] | ≤ 1000
CC(C)S(=O)(=O)n1ccc(S(=O)(=O)n2nc(N3CCN(c4ncc(F)cn4)CC34CC4)c3c(Cl)cccc32)c1 [Compound 111, 4-chloro-3-[7-(5-fluoropyrimidin-2-yl)-4,7-diazaspiro [2.5]octan-4-yl]-1-(1-isopropylsulfonylpyrrol-3-yl) sulfonyl-indazole] | ≤ 1000
O=S(=O)(c1ccc(C(F)F)cc1)n1nc(N2CCN(c3ncc(F)cn3)CC2C2CC2)c2c(Cl)cccc21 (stereo not drawn) [Compound 112, 4-chloro-3-[2-cyclopropyl-4-(5-fluoropyrimidin-2-yl)piperazin-1-yl]-1-[4-(difluoromethyl)phenyl]sulfonyl-indazole] | ≤ 1000

Further lines, results first:

EC50 [nM] | Structure (SMILES)
≤ 1000 | O=S(=O)(c1ccc(C(F)(F)F)cc1)n1nc(N2CCN(c3ncc(F)cn3)CC23CC3)c2c(Cl)cccc21 [Compound 113, 4-chloro-3-[7-(5-fluoropyrimidin-2-yl)-4,7-diazaspiro[2.5]octan-4-yl]-1-[4-(trifluoromethyl)phenyl]sulfonyl-indazole]
≤ 1000 | O=S(=O)(c1ccc(S(=O)(=O)n2nc(N3CCN(c4ncc(F)cn4)CC34CC4)c3c(Cl)cccc32)cc1)C(F)F [Compound 114, 4-chloro-1-[4-(difluoromethylsulfonyl)phenyl]sulfonyl-3-[7-(5-fluoropyrimidin-2-yl)-4,7-diazaspiro[2.5]octan-4-yl]indazole]
≤ 1000 | O=S(=O)(c1ccc(OC(F)F)cc1)n1nc(N2CCN(c3ncc(F)cn3)CC23CC3)c2c(Cl)cccc21 [Compound 115, 4-chloro-1-[4-(difluoromethoxy)phenyl]sulfonyl-3-[7-(5-fluoropyrimidin-2-yl)-4,7-diazaspiro[2.5]octan-4-yl]indazole]
≤ 1000 | CC(F)(F)c1ccc(S(=O)(=O)n2nc(N3CCN(c4ncc(F)cn4)CC34CC4)c3c(Cl)cccc32)cc1 [Compound 116, 4-chloro-1-[4-(1,1-difluoroethyl)phenyl]sulfonyl-3-[7-(5-fluoropyrimidin-2-yl)-4,7-diazaspiro[2.5]octan-4-yl]indazole]
≤ 1000 | O=S(=O)(c1ccc(OC(F)(F)F)cc1)n1nc(N2CCN(c3ncc(F)cn3)CC23CC3)c2c(Cl)cccc21 [Compound 117, 4-chloro-3-[7-(5-fluoropyrimidin-2-yl)-4,7-diazaspiro [2.5]octan-4-yl]-1-[4-(trifluoromethoxy)phenyl]sulfonyl-indazole]
≤ 1000 | O=S(=O)(c1ccc(SC(F)(F)F)cc1)n1nc(N2CCN(c3ncc(F)cn3)CC23CC3)c2c(Cl)cccc21 [Compound 118, 4-chloro-3-[7-(5-fluoropyrimidin-2-yl)-4,7-diazaspiro[2.5]octan-4-yl]-1-[4-(trifluoromethylsulfanyl)phenyl]sulfonyl-indazole]
≤ 1000 | CC(F)(F)c1ccc(S(=O)(=O)n2nc(N3CCN(C4COC4)CC34CC4)c3c(Cl)cccc32)cc1 [Compound 119, 4-chloro-1-((4-(1,1-difluoroethyl)phenyl)sulfonyl)-3-(7-(oxetan-3-yl)-4,7-diazaspiro[2.5]octan-4-yl)-1H-indazole]
≤ 1000 | CC(F)(F)c1ccc(S(=O)(=O)n2nc(N3CCN(C4COC4)CC3C(F)(F)F)c3c(Cl)cccc32)cc1 (stereo not drawn) [Compound 120, 4-chloro-1-((4-(1,1-difluoroethyl)phenyl)sulfonyl)-3-(4-(oxetan-3-yl)-2-(trifluoromethyl)piperazin-1-yl)-1H-indazole]
≤ 1000 | CC(F)(F)c1ccc(S(=O)(=O)n2nc(N3CCN(c4ncc(F)cn4)C[C@H]3C(C)(C)F)c3c(Cl)cccc32)cc1 [Compound 121, (S)-4-chloro-1-((4-(1,1-difluoroethyl)phenyl)sulfonyl)-3-(2-(2-fluoropropan-2-yl)-4-(5-fluoropyrimidin-2-yl)piperazin-1-yl)-1H-indazole]
≤ 1000 | CC(F)(F)c1ccc(S(=O)(=O)n2nc(N3CCN(c4ncc(F)cc4F)CC34CC4)c3c(Cl)cccc32)cc1 [Compound 123, 4-chloro-1-((4-(1,1-difluoroethyl)phenyl)sulfonyl)-3-(7-(3,5-difluoropyridin-2-yl)-4,7-diazaspiro[2.5]octan-4-yl)-1H-indazole]
≤ 1000 | CC(F)(F)c1ccc(S(=O)(=O)n2nc(N3CCN(c4ccc(Cl)cc4F)CC34CC4)c3c(Cl)cccc32)cc1 [Compound 124, 4-chloro-3-(7-(4-chloro-2-fluorophenyl)-4,7-diazaspiro[2.5]octan-4-yl)-1-((4-(1,1-difluoroethyl)phenyl)sulfonyl)-1H-indazole]
≤ 1000 | CC(F)(F)c1ccc(S(=O)(=O)n2nc(N3CCN(c4ccc(F)cc4Cl)CC34CC4)c3c(Cl)cccc32)cc1 [Compound 125, 4-chloro-3-(7-(2-chloro-4-fluorophenyl)-4,7-diazaspiro [2.5]octan-4-yl)-1-((4-(1,1-difluoroethyl)phenyl)sulfonyl)-1H-indazole]
≤ 1000 | CC(F)(F)c1ccc(S(=O)(=O)n2nc(N3CCN(c4ccc(F)cc4F)CC34CC4)c3c(Cl)cccc32)cc1 [Compound 126, 4-chloro-1-((4-(1,1-difluoroethyl)phenyl)sulfonyl)-3-(7-(2,4-difluorophenyl)-4,7-diazaspiro[2.5]octan-4-yl)-1H-indazole]
